The values below come from the RepoRT retention time repository (doi:10.1021/acs.analchem.2c02893).

A short description of the series: RP, Thermo Scientific Acclaim RSLC 120 C18, 100 × 2.1 mm, 2.2 µm, 30 °C, 0.2 mL/min, estimated dead time 1.1 min; A: 90% water + 10% methanol + 0.01% formic acid + 5 mM ammonium formate, pH 3.61; B: methanol + 0.01% formic acid + 5 mM ammonium formate, pH 3.61; gradient (min/%B) 0/1 1/1 2/39 13/99.9 15/99.9 15.1/1 20.1/1. The note with it: stereoisomer not certain.
In the case of `O=C(Oc1cccc2cccnc12)c1nn(CCCCCF)c2ccccc12` [NPB-22-5F], the LC retention time is 10.3 min.

For the compound `CCCCCn1nc(C(=O)Oc2cccc3cccnc23)c2ccccc21` [NPB-22], the LC retention time is 11.4 min.

As for `COc1ccc2cc(CCC(C)=O)ccc2c1` [Nabumetone], the LC retention time was 9.82 min.

With `CC(C)(C)NCC(O)COc1cccc2c1CC(O)C(O)C2` (stereo unspecified) [Nadolol], the LC retention time is 4.29 min.

With `CN(CC=Cc1ccccc1)Cc1cccc2ccccc12` [Naftifine], the LC retention time was 8.52 min.

For `Oc1ccc2c3c1OC1C(O)CCC4(O)C(C2)N(CC2CCC2)CCC314` (stereo unspecified) [Nalbuphine], the LC retention time was 4.17 min.

Consider `COP(=O)(OC)OC(Br)C(Cl)(Cl)Br` (stereo unspecified) [Naled], for which the LC retention time was 8.55 min.

For `CCn1cc(C(=O)O)c(=O)c2ccc(C)nc21` [Nalidixic acid], the LC retention time is 7.06 min.

With `C=CCN1CCC23c4c5ccc(O)c4OC2C(O)C=CC3C1C5` (stereo unspecified) [Nalorphine], the LC retention time was 3.39 min.

On to `C=CCN1CCC23c4c5ccc(O)c4OC2C(=O)CCC3(O)C1C5` (stereo unspecified) [Naloxone], for which the LC retention time was 3.44 min.

In the case of `CC12CCC3C4CCC(=O)C=C4CCC3C1CCC2OC(=O)CCc1ccccc1` (stereo unspecified) [Nandrolone phenylpropionate], the LC retention time is 13.6 min.

As for `CC12CCC3C4CCC(=O)C=C4CCC3C1CCC2O` (stereo unspecified) [Nandrolone], the LC retention time is 9.37 min.

Regarding `c1ccc2c(CC3=NCCN3)cccc2c1` [Naphazoline], the LC retention time was 4.84 min.

As to `O=C(O)Cc1cccc2ccccc12` [Naphthylacetic acid (1-)], the LC retention time was 7.76 min.

On to `CCCC(C(=O)c1ccc2ccccc2c1)N1CCCC1` (stereo unspecified) [Naphyrone], for which the LC retention time was 7.33 min.

Regarding `CCN(CC)C(=O)C(C)Oc1cccc2ccccc12` (stereo unspecified) [Napropamide], the LC retention time is 10.2 min.

Take `COc1ccc2cc(C(C)C(=O)O)ccc2c1` (stereo unspecified) [Naproxen]: the LC retention time is 8.99 min.

Turning to `O=C(O)c1ccccc1C(=O)Nc1cccc2ccccc12` [Naptalam (N-1-Naphthylphthalamic acid)], the LC retention time is 6.75 min.

Regarding `CCC(C(=O)O)C1OC(C(C)C(O)C(C)C(=O)C(CC)C2OC3(C=CC(O)C4(CCC(C)(C5CCC(O)(CC)C(C)O5)O4)O3)C(C)CC2C)C(C)CC1C` (stereo unspecified) [Narasin], the LC retention time is 16.1 min.

As for `CC(C)C1CCC(C(=O)NC(Cc2ccccc2)C(=O)O)CC1` (stereo unspecified) [Nateglinide], the LC retention time is 10.4 min.

`OC(CNCC(O)C1CCc2cc(F)ccc2O1)C1CCc2cc(F)ccc2O1` (stereo unspecified) [Nebivolol]: the LC retention time was 8.28 min.

Take `CCCCN(C)C(=O)Nc1ccc(Cl)c(Cl)c1` [Neburon]: the LC retention time was 10.7 min.

As for `CCc1nn(CCCN2CCN(c3cccc(Cl)c3)CC2)c(=O)n1CCOc1ccccc1` [Nefazodone], the LC retention time is 9.95 min.

As to `CN1CCOC(c2ccccc2)c2ccccc2C1` (stereo unspecified) [Nefopam], the LC retention time is 5.67 min.

As to `COC(=O)C(Cc1ccccc1)NC(=O)C(CC(=O)O)NCCC(C)(C)C` (stereo unspecified) [Neotam], the LC retention time was 8.83 min.

For `COC(=O)C1=C(C)NC(C)=C(C(=O)OCCN(C)Cc2ccccc2)C1c1cccc([N+](=O)[O-])c1` (stereo unspecified) [Nicardipine], the LC retention time was 8.39 min.

With `O=C(Nc1ccc([N+](=O)[O-])cc1Cl)c1cc(Cl)ccc1O` [Niclosamide], the LC retention time is 12.6 min.

As for `COc1cc(OC)nc(NC(=O)NS(=O)(=O)c2ncccc2C(=O)N(C)C)n1` [Nicosulfuron], the LC retention time was 6.62 min.

Take `c1cncc(C2CCCN2)c1` (stereo unspecified) [Nicotine-Nor]: the LC retention time was 2.44 min.

Take `COC(=O)C1=C(C)NC(C)=C(C(=O)OC)C1c1ccccc1[N+](=O)[O-]` [Nifedipine]: the LC retention time is 8.31 min.

Turning to `Cc1c(NC(=O)c2cccnc2)c(=O)n(-c2ccccc2)n1C` [Nifenazone], the LC retention time is 4.56 min.
